Key:
Puccinia recondita = test: Efficacy test against wheat brown rust, 100 mg/L and 10 mg/L (Experimental Example 2); format: in vivo; settings: nine to 14 days after inoculation; for efficacy compared with compound (1): 10 mg/L sprayed at 1,000 L/ha; for pest or weed control at 100 µg/mL: Puccinia recondita, 336 h, 100 mg/L sprayed at 1,000 L/ha, read-out: Protective value
Method: Onto a wheat plant (variety: NORIN No. 61) grown to the two-leaf phase using a square plastic pot (6 cm×6 cm), a wettable formulation such as Formulation Example 1 which was diluted and suspended in water at a certain concentration (100 mg/L and 10 mg/L) was sprayed at a rate of 1,000 L/ha. The sprayed leaves were air-dried, and inoculated with spore suspension of Puccinia recondita (adjusted at 200 spores/vision, […] was added at 60 ppm) by spraying, and kept at 25 degrees C. and a high humidity for 48 hours. Thereafter, the plant was kept in a greenhouse. Nine to 14 days after inoculation, the wheat brown rust lesion degree was investigated, and the protective value was calculated by the following equation. Protective value (%)=(1-lesion degree in sprayed plot/lesion degree in unsprayed plot)×100

Aspergillus sp. = test: Plate medium assay, industrial material deteriorating microorganism, Aspergillus (Experimental Example 5); format: cell-based; settings: treatment at 50 mg/l, PDA plate medium, read-out: growth inhibition grade
Method: (§1) In this Experimental Example, the fungicidal effects of the inventive compounds on various phytopathogenic fungi for plants and hazardous microorganism for industrial materials were examined by the methods described below. Each inventive compound was dissolved in 2 ml of dimethyl sulfoxide. 0.6 ml of this solution was added to 60 nil of a PDA medium (potato dextrose agar medium) at about 60 degrees C., which was mixed thoroughly in a 100-ml conical flask, and poured into a dish, where it was solidified, thereby obtaining a plate medium containing the inventive compound at 50 mg/L and 5 mg/L. On the other hand, a subject microorganism previously cultured on a plate medium was cut out using a cork borer whose diameter was 4 mm, and inoculated to the test compound-containing plate medium described above. […] The growth degree of the microorganism on the test compound-containing plate medium thus observed was compared with the growth degree of the microorganism in the untreated group, and % mycelial growth inhibition was calculated by the following equation. R=100(dc-dt)/dc wherein R=% mycelial extension inhibition, dc=flora diameter in untreated plate, dt=flora diameter in treated plate. The results obtained as described above were evaluated as one of the 5 grades according to the following criteria.

Mucor sp. = test: Plate medium assay, industrial material deteriorating microorganism, Mucor (Experimental Example 5); format: cell-based; settings: treatment at 50 mg/l, PDA plate medium, read-out: growth inhibition grade
Method: as §1

Aureobasidium sp. = test: Plate medium assay, industrial material deteriorating microorganism, Aureobasidium (Experimental Example 5); format: cell-based; settings: treatment at 50 mg/l, PDA plate medium, read-out: growth inhibition grade
Method: as §1

Curvularia sp. = test: Plate medium assay, industrial material deteriorating microorganism, Curvularia (Experimental Example 5); format: cell-based; settings: treatment at 50 mg/l, PDA plate medium, read-out: growth inhibition grade
Method: as §1

Tyromyces palustris = test: Plate medium assay, wood denaturing microorganism Oouzuratake (Experimental Example 5); format: cell-based; settings: treatment at 50 mg/l, PDA plate medium; read-out: growth inhibition grade
Method: as §1

Coriolus versicolor = test: Plate medium assay, wood denaturing microorganism Kawaratake (Experimental Example 5); format: cell-based; settings: Trametes versicolor; treatment at 50 mg/l, PDA plate medium; read-out: growth inhibition grade
Method: as §1

Botrytis cinerea = test: Efficacy test against cucumber gray mold (Experimental Example 1); format: in vivo; settings: 96 h, 100 mg/L sprayed at 1,000 L/ha, four days after inoculation, read-out: Protective value
Method: Onto a cucumber (variety:SHARP1) plant in its cotyledon phase grown using a square plastic pot (6 cm×6 cm), a wettable formulation such as Formulation Example 1 which was diluted and suspended in water at a certain concentrations (100 mg/L and 50 mg/L) was sprayed at a rate of 1,000 L/ha. The sprayed leaves were air-dried, and loaded with a paper disc (8 mm in diameter) soaked in a spore suspension of Botrytis cinerea, and kept at 20 degrees C. and a high humidity. Four days after inoculation, the cucumber gray mold lesion degree was investigated, and the protective value was calculated by the following equation. Protective value (%)=(1−mean lesion degree in sprayed plot/mean lesion degree in unsprayed plot)×100

| SMILES | efficacy compared with compound (1) (Puccinia recondita) | pest or weed control at 100 µg/mL (Puccinia recondita) | inhibition at 50 µg/mL (Aspergillus sp.) | inhibition at 50 µg/mL (Mucor sp.) | inhibition at 50 µg/mL (Aureobasidium sp.) | inhibition at 50 µg/mL (Curvularia sp.) | inhibition at 50 µg/mL (Tyromyces palustris) | inhibition at 50 µg/mL (Coriolus versicolor) | pest or weed control at 100 µg/mL (Botrytis cinerea) |
| --- | --- | --- | --- | --- | --- | --- | --- | --- | --- |
| C[C@]1(CCl)CC[C@@H](Cc2ccccc2F)[C@]1(O)Cn1cncn1 (relative stereo) [Compound I-86] | higher efficacy than that of compound (1) | – | – | – | – | – | – | – | – |
| CC[C@]1(CCl)CC[C@@H](Cc2ccccc2)[C@]1(O)Cn1cncn1 (relative stereo) [Compound I-97] | higher efficacy than that of compound (1) | – | – | – | – | – | – | – | – |
| CC(Cl)=C[C@]1(C)CC[C@@H](Cc2ccc(Cl)cc2)[C@]1(O)Cn1cncn1 (racemic) [Compound I-115, (1RS,2SR,5SR)-5-(4-chlorobenzyl)-2-(2-chloropropenyl)-2-methyl-1-(1H-1,2,4-triazol-1-ylmethyl)cyclopentanol] | – | ≥ 90% | 60 to 80% | 60 to 80% | 60 to 80% | 60 to 80% | 60 to 80% | 60 to 80% | – |
| Cc1ccc(C[C@@H]2CC[C@](C)(CCl)[C@@]2(O)Cn2cncn2)cc1 (relative stereo) [Compound I-80] | higher efficacy than that of compound (1) | – | – | – | – | – | – | – | – |
| C[C@@]1(CCl)CC[C@H](Cc2ccc(Cl)cc2)[C@]1(O)Cn1cncn1 (racemic) [Compound I-401, (1RS,2RS,5RS)-5-(4-chlorobenzyl)-2-chloromethyl-2-methyl-1-[1,2,4]triazol-1-ylmethylcyclopentanol] | – | – | 60 to 80% | 60 to 80% | 60 to 80% | 60 to 80% | 60 to 80% | 60 to 80% | – |
| O[C@]1(Cn2cncn2)[C@H](Cc2ccc(Cl)cc2)CCC1(CCl)CCl (relative stereo) [Compound I-203, cis-5-(4-chlorobenzyl)-2,2-bis(chloromethyl)-1-(1H-1,2,4-triazol-1-yl)methylcyclopentanol] | higher efficacy than that of compound (1) | – | – | – | – | – | – | – | – |
| O[C@]1(Cn2cncn2)[C@H](Cc2ccc(Cl)cc2)CC[C@@H]1C(F)(F)F (racemic) [Compound I-65, (1RS,2SR,5SR)-5-(4-chlorobenzyl)-2-trifluoromethyl-1-(1H-1,2,4-triazol-1-ylmethyl)cyclopentanol] | – | ≥ 90% | 60 to 80% | 60 to 80% | 60 to 80% | 60 to 80% | 60 to 80% | 60 to 80% | ≥ 80% |
| C[C@@]1(CCl)CC[C@@H](Cc2ccc(Cl)cc2)[C@]1(O)Cn1cncn1 (racemic) [Compound I-101] | higher efficacy than that of compound (1) | – | – | – | – | – | – | – | – |
| O[C@]1(Cn2cncn2)[C@@H](Cc2ccc(Cl)cc2)CC[C@@H]1C(F)(F)F (racemic) [Compound I-365, (1RS,2SR,5RS)-5-(4-chlorobenzyl)-2-trifluoromethyl-1-(1H-1,2,4-triazol-1-ylmethyl)cyclopentanol] | – | – | 60 to 80% | 60 to 80% | 60 to 80% | 60 to 80% | 60 to 80% | 60 to 80% | – |
| C[C@]1(CCl)CC[C@@H](Cc2ccc(OC(F)(F)F)cc2)[C@]1(O)Cn1cncn1 (relative stereo) [Compound I-79] | higher efficacy than that of compound (1) | – | – | – | – | – | – | – | – |

Source: patent publication US9145351B2, “Azole derivatives, methods for producing the same, intermediate thereof, agro-horticultural agents” (KUREHA CORPORATION, priority 2009, dated 2015)
